From PubChem BioAssay AID256 (DTP/NCI, 2004) come the findings set out here.

The subject of this experiment is CD2F1 mice, L1210 leukemia ip, survival T/C. Description: NCI In Vivo Anticancer Drug Screen. Data for tumor model L1210 Leukemia (intraperitoneal) in CD2F1 (CDF1) mice. Conditions: higher = longer survival. The gist of the method:
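Transplantable tumor in mice; compound-treated vs vehicle-treated groups. Read-out = treated/control ratio of the measured endpoint.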

Where [1] appears, read: endpoint: mean survival time, dose: 100.0 mg/kg/injection, schedule: Q04DX003 (ip), vehicle: saline with Tween-80.
The mark [2] stands for this setting: endpoint: mean survival time, dose: 200.0 mg/kg/injection, schedule: Q04DX003 (ip), vehicle: saline with Tween-80.
The mark [3] stands for this setting: endpoint: mean survival time, dose: 400.0 mg/kg/injection, schedule: Q04DX003 (ip), vehicle: saline with Tween-80.
[4] abbreviates: endpoint: mean survival time, dose: 400.0 mg/kg/injection, schedule: Q01DX009 (ip), vehicle: saline with Tween-80.
Where [5] appears, read: endpoint: mean survival time, dose: 50.0 mg/kg/injection, schedule: Q01DX009 (ip), vehicle: saline with Tween-80.
Setting [6] is: endpoint: mean survival time, dose: 100.0 mg/kg/injection, schedule: Q01DX009 (ip), vehicle: saline with Tween-80.
The mark [7] stands for this setting: endpoint: mean survival time, dose: 200.0 mg/kg/injection, schedule: Q01DX009 (ip), vehicle: saline with Tween-80.

SMILES strings stand for the structures. Where “and” joins values, the source holds several entries; their conditions need not be identical. Identical values can stand only once. Toxic doses and inconclusive results are not listed.

On to `Cc1ccc(NC(=O)NC2CCCCC2)cc1`, for which the T/C is 93 % of control under setting [1], 90 % of control under setting [2] and 93 % of control under setting [3].

In the case of `O=S1(=O)c2ccccc2C(=NO)c2ccccc21`, the T/C is 92 % of control (endpoint: mean survival time, dose: 100.0 mg/kg/injection, schedule: Q04DX003 (ip), vehicle: saline); 96 % of control (endpoint: mean survival time, dose: 200.0 mg/kg/injection, schedule: Q04DX003 (ip), vehicle: saline); 106 % of control (endpoint: mean survival time, dose: 400.0 mg/kg/injection, schedule: Q04DX003 (ip), vehicle: saline).

Turning to `O=C1CSCC(=O)N1`, the T/C by setting is: (endpoint: mean survival time, dose: 100.0 mg/kg/injection, schedule: Q04DX003 (ip), vehicle: other) 111 % of control; (endpoint: mean survival time, dose: 200.0 mg/kg/injection, schedule: Q04DX003 (ip), vehicle: other) 111 % of control; (endpoint: mean survival time, dose: 400.0 mg/kg/injection, schedule: Q04DX003 (ip), vehicle: other) 98 % of control.

Consider `CC1(C(N)=O)OC12CCCCC2` (stereo not given), for which the T/C by setting is: under setting [1], 95 % of control; under setting [2], 97 % of control; under setting [3], 97 % of control.

For `CCOC(=O)c1[nH]cnc1/N=N/N(C)CCO`, the T/C is 106 % of control under setting [1]; 111 % of control under setting [2]; 160 % of control (endpoint: mean survival time, dose: 264.0 mg/kg/injection, schedule: Q01DX009 (ip), vehicle: saline sonified); 162 % of control (endpoint: mean survival time, dose: 400.0 mg/kg/injection, schedule: Q01DX009 (ip), vehicle: saline sonified); 150 % of control under setting [4]; 109 % of control under setting [3]. Also, the T/C (endpoint: mean survival time, dose: 600.0 mg/kg/injection, schedule: Q01DX009 (ip), vehicle: saline sonified) is 165 % of control.

As for `COc1cc(C=C(C(C)=O)C(C)=O)ccc1O`, the T/C under setting [5] is 98 % of control, the T/C under setting [6] is 101 % of control and the T/C under setting [7] was 98 % of control.

Take `Nc1ccc2ccc(NS(=O)(=O)N3CCCCC3)cc2c1`: the T/C reads like this: (endpoint: median survival time, dose: 25.0 mg/kg/injection, schedule: Q01DX009 (ip), vehicle: saline with Tween-80) 118 % of control and 101 % of control and 106 % of control; (endpoint: median survival time, dose: 50.0 mg/kg/injection, schedule: Q01DX009 (ip), vehicle: saline with Tween-80) 100 % of control and 109 % of control and 112 % of control; (endpoint: median survival time, dose: 100.0 mg/kg/injection, schedule: Q01DX009 (ip), vehicle: saline with Tween-80) 114 % of control and 118 % of control and 119 % of control; (endpoint: median survival time, dose: 400.0 mg/kg/injection, schedule: Q01DX009 (ip), vehicle: saline with Tween-80) 182 % of control.

For the compound `Cc1ccc(S(=O)(=O)N(O)S(=O)(=O)c2ccc(C)cc2)cc1`, the T/C by setting is: (endpoint: mean survival time, dose: 100.0 mg/kg/injection, schedule: Q01DX001 (ip), vehicle: saline with Tween-80) 101 % of control; under setting [6], 94 % of control; (endpoint: mean survival time, dose: 200.0 mg/kg/injection, schedule: Q01DX001 (ip), vehicle: saline with Tween-80) 94 % of control; under setting [7], 92 % of control; (endpoint: mean survival time, dose: 400.0 mg/kg/injection, schedule: Q01DX001 (ip), vehicle: saline with Tween-80) 100 % of control; under setting [4], 94 % of control.

On to `CC(C)CC(Br)C(=O)NC(CC(C)C)C(=O)O` (stereo not given), for which the T/C is, setting by setting: under setting [1], 95 % of control; under setting [2], 105 % of control; under setting [3], 94 % of control.

Take `COC(=O)c1cc(C)n(-c2ccc(C)cc2)c1C`: the T/C by setting is: under setting [1], 100 % of control; under setting [2], 96 % of control; under setting [3], 97 % of control.

Consider `Nc1nc(=Nc2ccccc2)n(C2OCC(O)C(O)C2O)c2ccccc12` (stereo not given), for which the T/C is, setting by setting: (endpoint: mean survival time, dose: 12.5 mg/kg/injection, schedule: Q01DX005 (ip), vehicle: distilled water + Tween-80) 94 % of control; (endpoint: mean survival time, dose: 25.0 mg/kg/injection, schedule: Q01DX005 (ip), vehicle: distilled water + Tween-80) 94 % of control; (endpoint: mean survival time, dose: 50.0 mg/kg/injection, schedule: Q01DX005 (ip), vehicle: distilled water + Tween-80) 93 % of control; (endpoint: mean survival time, dose: 100.0 mg/kg/injection, schedule: Q01DX005 (ip), vehicle: distilled water + Tween-80) 90 % of control; (endpoint: mean survival time, dose: 200.0 mg/kg/injection, schedule: Q01DX005 (ip), vehicle: distilled water + Tween-80) 86 % of control.

In the case of `O=C(CO)c1ccc([N+](=O)[O-])cc1`, the T/C is, setting by setting: (endpoint: mean survival time, dose: 3.12 mg/kg/injection, schedule: Q01DX009 (ip), vehicle: saline with Tween-80) 98 % of control and 101 % of control; (endpoint: mean survival time, dose: 6.25 mg/kg/injection, schedule: Q01DX009 (ip), vehicle: saline with Tween-80) 96 % of control and 101 % of control; (endpoint: mean survival time, dose: 12.5 mg/kg/injection, schedule: Q01DX009 (ip), vehicle: saline with Tween-80) 98 % of control and 101 % of control; (endpoint: mean survival time, dose: 25.0 mg/kg/injection, schedule: Q01DX009 (ip), vehicle: saline with Tween-80) 95 % of control and 96 % of control; under setting [5], 101 % of control; under setting [6], 95 % of control and 101 % of control.

`CN(C)C1c2ccccc2-c2ccccc21`: the T/C (endpoint: mean survival time, dose: 50.0 mg/kg/injection, schedule: Q01DX001 (ip), vehicle: carboxymethylcellulose (CMC)) is 104 % of control; the T/C (endpoint: mean survival time, dose: 100.0 mg/kg/injection, schedule: Q01DX001 (ip), vehicle: carboxymethylcellulose (CMC)) was 104 % of control; the T/C (endpoint: mean survival time, dose: 200.0 mg/kg/injection, schedule: Q01DX001 (ip), vehicle: carboxymethylcellulose (CMC)) is 104 % of control; the T/C (endpoint: mean survival time, dose: 400.0 mg/kg/injection, schedule: Q01DX001 (ip), vehicle: carboxymethylcellulose (CMC)) is 110 % of control.

Take `CC(C)(C)OOCC1CO1` (stereo not given): the T/C under setting [6] was 92 % of control; the T/C under setting [1] was 98 % of control; the T/C under setting [7] was 94 % of control; the T/C under setting [2] is 105 % of control; the T/C under setting [4] was 98 % of control; the T/C under setting [3] is 96 % of control.

In the case of `CC1CCCCCCCCCCC12OCCO2` (stereo not given), the T/C (endpoint: mean survival time, dose: 100.0 mg/kg/injection, schedule: Q04DX002 (ip), vehicle: saline with Tween-80) is 87 % of control; the T/C (endpoint: mean survival time, dose: 200.0 mg/kg/injection, schedule: Q04DX002 (ip), vehicle: saline with Tween-80) is 98 % of control; the T/C (endpoint: mean survival time, dose: 400.0 mg/kg/injection, schedule: Q04DX002 (ip), vehicle: saline with Tween-80) was 106 % of control.

On to `Nc1nc(NNC(=O)CCCO)c2nonc2n1`, for which the T/C is 97 % of control (endpoint: mean survival time, dose: 9.4 mg/kg/injection, schedule: Q01DX005 (ip), vehicle: other); 109 % of control (endpoint: mean survival time, dose: 18.8 mg/kg/injection, schedule: Q01DX005 (ip), vehicle: other); 105 % of control (endpoint: mean survival time, dose: 37.5 mg/kg/injection, schedule: Q01DX005 (ip), vehicle: other); 105 % of control (endpoint: mean survival time, dose: 75.0 mg/kg/injection, schedule: Q01DX005 (ip), vehicle: other); 105 % of control (endpoint: mean survival time, dose: 150.0 mg/kg/injection, schedule: Q01DX005 (ip), vehicle: other).

Regarding `C(=C\c1ccncc1)/c1ccccc1`, the T/C by setting is: under setting [1], 93 % of control; under setting [2], 92 % of control; under setting [3], 93 % of control.

For the compound `O=C(Cl)C12CC3CC(CC(C3)C1)C2`, the T/C is, setting by setting: (endpoint: mean survival time, dose: 12.5 mg/kg/injection, schedule: Q01DX009 (ip), vehicle: other) 94 % of control; (endpoint: mean survival time, dose: 25.0 mg/kg/injection, schedule: Q01DX009 (ip), vehicle: other) 94 % of control; (endpoint: mean survival time, dose: 50.0 mg/kg/injection, schedule: Q01DX009 (ip), vehicle: other) 91 % of control; (endpoint: mean survival time, dose: 100.0 mg/kg/injection, schedule: Q01DX009 (ip), vehicle: other) 91 % of control.

`O=C(O)c1cccc(S(=O)(=O)N(CCO)CCO)c1`: the T/C is 94 % of control under setting [6]; 98 % of control under setting [1]; 94 % of control under setting [7]; 94 % of control under setting [2]; 94 % of control under setting [3].

Turning to `CCCC(C)(COC(N)=O)COC(N)=O`, the T/C by setting is: under setting [1], 96 % of control; under setting [2], 98 % of control; under setting [3], 96 % of control.

Consider `CC(C)(C)c1ccc(S(=O)(=O)CC(=O)O)cc1`, for which the T/C runs as follows: (endpoint: mean survival time, dose: 75.0 mg/kg/injection, schedule: Q01DX001 (ip), vehicle: other) 104 % of control; under setting [1], 104 % of control; (endpoint: mean survival time, dose: 150.0 mg/kg/injection, schedule: Q01DX001 (ip), vehicle: other) 100 % of control; under setting [2], 102 % of control; (endpoint: mean survival time, dose: 300.0 mg/kg/injection, schedule: Q01DX001 (ip), vehicle: other) 98 % of control; under setting [3], 104 % of control.

On to `c1ccc(C2=NNC(c3ccccn3)=NN2)nc1`, for which the T/C is 95 % of control under setting [6]; 97 % of control under setting [1]; 101 % of control under setting [7]; 92 % of control under setting [2]; 97 % of control under setting [4]; 101 % of control under setting [3].

Consider `CCCCCCCCCCCCCCCCCCCCCC(=O)OC`, for which the T/C was 102 % of control under setting [6]; 89 % of control under setting [1]; 103 % of control under setting [7]; 90 % of control under setting [2]; 100 % of control under setting [4]; 87 % of control under setting [3].
